In patent US5811391A, “Cyclic CS-1 peptidomimetics, compositions and methods of using same” (Cytel Corporation, priority 1995, dated 1998):
pIC50: −log10 of the molar value. Several values for one entry are separate records, joined by “and”; a condition that tells them apart may be missing. Equal values may be shown once. Positions of bridges follow the written chain, without caps; N, C: chain ends. Non-standard residues stand in square brackets, D forms with d. Residues, ends and D or L forms follow the SMILES beside them. No end group written: not given here. *: point of attachment. PhAc = O=C(Cc1ccccc1)*

What was measured:
[1] = Retention of potency in PBS containing 10 percent mouse or human serum; format: in vitro ADME; settings: PBS at 7.2-7.4 containing 10 percent mouse or human serum
[2] = Elices et al. 1993; cited from earlier work
VLA-4/sVCAM-1 = molecular target: T1, VLA-4/sVCAM-1 (Homo sapiens, UniProt P05556+P13612); experiment: In vitro binding assay: Jurkat cells to solid phase-bound sVCAM-1; format: cell-based; settings: for relative potencies for inhibiting Jurkat cell binding to solid phase-bound sVCAM-1: compared against each other, XLDFp = 1
T1 construct: host or cells: Jurkat cells carry the VLA-4; The sVCAM-1 partner was made in house in transfected human embryonal kidney 293 cells (ATCC CRL 1573)
Description: Assays conducted using sVCAM-1 as solid phase-bound antigen were carried out substantially identically to those using CS-1. The sVCAM-1 polypeptide used had the same amino acid residue sequence as the materials described in Lobb et al., Biochem. Biophys. Res. Commun., 178:1498-1504 (1991) and Cybulsky et al., Proc. Natl. Acad. Sci., USA, 88:7859-7863 (1991). Human embryonal kidney line 293 (ATCC CRL 1573) cells were co-transfected with a plasmid (pCDNAI;invitrogen) containing the sVCAM-1 DNA sequence and plasmid pSV2-neo [Southern et al., J. Mol. Appl. Gen., 1:327-341 ([…])]. Cells were selected in DMEM, 10 percent fetal bovine serum and 600 μg/ml Geneticin. sVCAM-1 was purified from supernatants using a column containing monoclonal antibody P3H12 (anti-human VCAM-1) coupled to Sepharose 4B. The sVCAM-1 was eluted using 0.1M glycine at pH 2.5 following 50 column washes with PBS, pH 7.2. The eluate was immediately neutralized and dialyzed against PBS for use.

VLA-4 [3] = molecular target: T2, VLA-4 (Homo sapiens, UniProt P05556+P13612); experiment: In vitro binding assay: 51Cr-labeled Jurkat cells to solid phase-bound CS-1 peptide (SEQ ID NO:5); format: cell-based; design: inflammatory cells that contain the VLA-4 receptor [Jurkat cells; host or cells: Jurkat cells (human T lymphoblastic line); settings: for Relative Potency: CS-1; for CS-1 inhibition potencies relative to each other: ratio XLDFZ:XLDFp:SEQ ID NO:7, XLDFp = 1; for Potency in inhibiting Jurkat cell binding to CS-1 relative to standard 10-mer of SEQ ID NO:6: times/fold more potent than SEQ ID NO:6
Description: Binding inhibition is measured here as a concentration of peptide that inhibits one-half the binding between a standard number of Jurkat cells and a standard amount of CS-1 peptide bound to the surface of a microtiter plate well. Those concentrations are conveniently expressed as IC50 values, smaller numbers indicating a lower concentration required to inhibit 50 percent binding and therefore greater potency. Further specifics of this assay are provided hereinafter.
Jurkat cells (ATCC TIB 152), a human T lymphoblastic line, labeled with ^51 chromium were used to assay in vitro binding inhibition provided by various peptides discussed herein.
The plates were prepared as follows: The 25-mer CS-1 peptide (SEQ ID NO:5) dissolved at 0.5-1 μg/ml in a buffer of 0.1M NaHCO3 at pH 9.5 that also contained 10 μg/ml of bovine serum albumin (BSA) or a conjugate of the CS-1 peptide linked to ovalbumin (CS-1-OVA) dissolved at 1-2.5 μg/ml in the same buffer was used as the substrate. Each well of the microtiter plates was coated with 50 μl of substrate or buffer alone for controls. The wells were permitted to dry out completely and were then rinsed twice with PBS at pH 7.4. Non-specific binding sites of each well were then blocked using 200 μl per well of RPMI/1 percent BSA for two hours at room temperature. Both solid phase-affixed substrates provided similar results.
Jurkat cells (3-5×10^6 cells) were placed into a 15 ml FALCON™ round-bottom tube with a cap. The tube was centrifuged, and the extra medium was then removed.
Two hundred microliters of a ^51 Cr labeling solution were added to the centrifuged cells and maintained in contact with the cells for 90-120 minutes in a warm room. This procedure typically provides about 50,000-100,000 cpm/well with about 80-100 percent cell viability. Longer contact times provide a greater amount of labeling but lower cell viability.
The labeled cells were washed with (i) complete medium, (ii) 1mM EDTA/PBS and then (iii) RPM1/1 percent BSA free of serum components. The cells were centrifuged after each washing. The cells were finally resuspended in serum-free RPMI/1 percent BSA at a concentration of 1×10^6 viable cells/ml, which provides a concentration that is diluted by one-half in the assay.
Cyclic inhibitor peptides were prepared as stock solutions at 20 mg/ml in DMSO in 1.5 ml cryogenic screwcap vials, and were stored at -70° C. Using FLOW™ round-bottom or V-bottom microtiter plates, the inhibitor peptides were prepared at twice the assay concentration in RPMI/1 percent BSA at 60 μl/well.
Four initial dilutions were typically used.
The ^51 Cr-labeled cells (1×10^6 cells at 60 μl/well) were then admixed with the diluted cyclic peptide solutions. The admixtures were maintained at room temperature (about 22° C.) for 30 minutes.
One hundred microliters of each inhibitor peptide/cell admixture were transferred to the substrate-coated wells. This was done in triplicate for each dilution. The resulting plates were incubated for 30 minutes at 37° C. and then washed gently three times with RPMI/1 percent BSA at 200 μl/well. Binding was observed microscopically, particularly after the second wash.
The bound cells were then lysed by the addition of a 0.5 percent solution of sodium dodecylsulfate in water at 100 μl/well. The resulting solutions were then processed for counting and calculation of IC50 values following usual procedures. Appropriate positive and negative controls were used with each plate so that the results of separate assays could be normalized and compared.
The potency data of Table 1 and Table 2 are so normalized. The absolute IC50 value for the peptide of SEQ ID NO:7 is 0.3 μM.

VLA-4 [4] = molecular target: T2, VLA-4; settings: cited from earlier work
contact hypersensitivity = settings: Ferguson et al. 1991; cited from earlier work
[5] = Table 1, normalized IC50 potency relative to standard peptide SEQ ID NO:6 (=1), Jurkat cells
[6] = Table 2, normalized IC50 potency relative to standard peptide SEQ ID NO:6, Jurkat cells

T2 sequence (P13612 34-1032): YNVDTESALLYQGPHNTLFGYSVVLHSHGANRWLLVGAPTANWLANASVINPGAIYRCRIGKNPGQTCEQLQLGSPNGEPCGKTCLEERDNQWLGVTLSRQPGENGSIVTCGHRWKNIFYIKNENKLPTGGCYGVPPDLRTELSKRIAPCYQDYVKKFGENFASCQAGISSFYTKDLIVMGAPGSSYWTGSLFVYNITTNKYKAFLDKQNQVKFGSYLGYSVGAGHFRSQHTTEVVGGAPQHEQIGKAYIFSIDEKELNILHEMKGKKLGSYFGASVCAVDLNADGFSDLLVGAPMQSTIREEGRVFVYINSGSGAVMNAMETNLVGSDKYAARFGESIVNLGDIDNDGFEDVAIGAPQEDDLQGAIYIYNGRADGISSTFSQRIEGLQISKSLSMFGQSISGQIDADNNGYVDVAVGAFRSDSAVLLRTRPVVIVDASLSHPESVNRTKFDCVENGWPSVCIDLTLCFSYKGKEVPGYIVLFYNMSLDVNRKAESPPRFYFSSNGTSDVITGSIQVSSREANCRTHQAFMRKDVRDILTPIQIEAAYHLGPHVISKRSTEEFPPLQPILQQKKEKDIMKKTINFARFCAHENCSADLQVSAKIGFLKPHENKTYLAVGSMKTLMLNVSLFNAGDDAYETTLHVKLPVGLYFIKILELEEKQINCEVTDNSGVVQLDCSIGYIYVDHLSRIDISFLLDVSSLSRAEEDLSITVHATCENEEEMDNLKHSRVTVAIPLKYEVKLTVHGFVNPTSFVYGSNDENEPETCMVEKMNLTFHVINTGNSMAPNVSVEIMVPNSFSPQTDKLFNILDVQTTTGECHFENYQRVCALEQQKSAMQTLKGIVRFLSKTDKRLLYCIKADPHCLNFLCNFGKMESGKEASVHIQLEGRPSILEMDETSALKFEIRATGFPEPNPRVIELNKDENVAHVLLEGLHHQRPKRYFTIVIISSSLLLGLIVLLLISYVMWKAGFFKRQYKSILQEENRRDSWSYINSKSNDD
T2 sequence (P05556 21-798): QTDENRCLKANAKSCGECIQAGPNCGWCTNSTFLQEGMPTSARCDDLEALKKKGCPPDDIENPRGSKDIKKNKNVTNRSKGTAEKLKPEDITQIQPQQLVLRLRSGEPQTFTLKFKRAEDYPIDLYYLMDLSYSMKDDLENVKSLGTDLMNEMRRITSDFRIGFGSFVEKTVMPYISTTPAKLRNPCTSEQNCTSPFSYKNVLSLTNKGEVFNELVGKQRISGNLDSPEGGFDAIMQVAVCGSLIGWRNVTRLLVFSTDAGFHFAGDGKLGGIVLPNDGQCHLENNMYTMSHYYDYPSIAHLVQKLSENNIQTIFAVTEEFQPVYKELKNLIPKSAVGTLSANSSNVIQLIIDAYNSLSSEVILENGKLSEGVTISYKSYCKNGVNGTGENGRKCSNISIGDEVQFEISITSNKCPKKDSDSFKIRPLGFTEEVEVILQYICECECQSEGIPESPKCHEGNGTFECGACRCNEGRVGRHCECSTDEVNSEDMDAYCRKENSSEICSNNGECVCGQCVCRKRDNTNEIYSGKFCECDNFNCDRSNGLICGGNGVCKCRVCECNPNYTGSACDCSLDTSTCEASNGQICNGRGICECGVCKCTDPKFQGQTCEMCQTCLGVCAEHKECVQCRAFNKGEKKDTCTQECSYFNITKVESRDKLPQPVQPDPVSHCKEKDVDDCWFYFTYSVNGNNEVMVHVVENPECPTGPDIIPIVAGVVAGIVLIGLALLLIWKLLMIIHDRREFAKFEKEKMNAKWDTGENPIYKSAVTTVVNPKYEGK
T1 sequence (P13612 34-1032): as the sequence (P13612 34-1032) above
T1 sequence (P05556 21-798): as the sequence (P05556 21-798) above

DELPQLVTLPHPNLHGPEILDVPST [CS-1 peptide, reference compound]
loss of potency in serum-containing buffer [1]: lost its potency in less than one hour
clearance from blood circulation [2]: rapidly cleared from blood circulation by proteolytic degradation

NC(=O)[C@@H]1CSSC[C@H](NC(=O)Cc2ccccc2)C(=O)N[C@@H](CC(=O)O)C(=O)N[C@@H](Cc2ccccc2)C(=O)N1 [SEQ ID NO:7, .phi.AcCDFC-NH2] (PhAc-CDFC-NH2; disulfide 1-4)
potency relative to the best linear peptide (XLDFZ) as inhibitor of Jurkat cell binding to sVCAM-1 (VLA-4/sVCAM-1): about 3 times
relative potencies for inhibiting Jurkat cell binding to solid phase-bound sVCAM-1 (VLA-4/sVCAM-1): ~3.8
loss of potency in serum-containing buffer [1]: no loss of potency after 24 hours
potency relative to the best linear peptide (XLDFZ) for inhibiting Jurkat cell binding to CS-1 (VLA-4 [3]): about two-thirds the potency
Relative Potency (VLA-4 [3]; [5]): 526
CS-1 inhibition potencies relative to each other (VLA-4 [3]): ~1.8
Potency in inhibiting Jurkat cell binding to CS-1 relative to standard 10-mer of SEQ ID NO:6 (VLA-4 [3]): 500-600 and ~563

Leu-Asp-Val [LDV]
affinity of VLA-4 compared with native CS-1 25-mer (VLA-4 [4]): at least two orders of magnitude lower affinity

Arg-Gly-Asp [Arg-Gly-Asp peptide]
recruitment of T lymphocytes to skin inflammatory sites (contact hypersensitivity): also inhibitory

CC(=O)N[C@@H](CC(C)C)C(=O)N[C@@H](CC(=O)O)C(=O)N[C@H](C(N)=O)C(C)C [AcLDV-NH2, reference compound] (Ac-Leu-Asp-Val-NH2)
Relative Potency (VLA-4 [3]; [5]): < 1
Potency in inhibiting Jurkat cell binding to CS-1 relative to standard 10-mer of SEQ ID NO:6 (VLA-4 [3]): about 1

CC(C)C[C@H](NC(=O)Cc1ccccc1)C(=O)N[C@@H](CC(=O)O)C(=O)N[C@@H](Cc1ccccc1)C(=O)N1CCC[C@@H]1C(N)=O [XLDFp, .phi.Ac-LeuAspPhe-D-Pro-NH2, reference compound] (PhAc-LDF[dP]-NH2)
relative potencies for inhibiting Jurkat cell binding to solid phase-bound sVCAM-1 (VLA-4/sVCAM-1): ~1
CS-1 inhibition potencies relative to each other (VLA-4 [3]): ~1
Potency in inhibiting Jurkat cell binding to CS-1 relative to standard 10-mer of SEQ ID NO:6 (VLA-4 [3]): ~313

CC(C)C[C@@H]1NC(=O)[C@H](Cc2ccccc2)NC(=O)[C@H](CCC(=O)O)NC(=O)[C@@H](N)CSSC[C@@H](C(N)=O)NC(=O)[C@@H]2CCCN2C(=O)[C@H](Cc2ccccc2)NC(=O)[C@H](CC(=O)O)NC1=O [drawing 26] (H-CEFLDFPC-NH2; disulfide 1-8)
Relative Potency (VLA-4 [3]; [6]): 18.8

CC(C)C[C@@H]1NC(=O)[C@H](Cc2ccccc2)NC(=O)[C@@H](N)CSSC[C@@H](C(N)=O)NC(=O)[C@H](C(C)C)NC(=O)[C@H]([C@@H](C)O)NC(=O)[C@H](CO)NC(=O)[C@@H]2CCCN2C(=O)[C@H](Cc2ccccc2)NC(=O)[C@H](CC(=O)O)NC1=O [SEQ ID NO:21, CFLDFPSTVC-NH2] (H-CFLDFPSTVC-NH2; disulfide 1-10)
Relative Potency (VLA-4 [3]; [5]): 19

NC(=O)[C@@H]1CSSC[C@H](NC(=O)[C@@H](N)Cc2ccccc2)C(=O)N[C@@H](CC(=O)O)C(=O)N[C@@H](Cc2ccccc2)C(=O)N2CCC[C@H]2C(=O)N1 [SEQ ID NO:12, FCDFPC-NH2] (H-FCDFPC-NH2; disulfide 2-6)
Relative Potency (VLA-4 [3]; [5]): 131

CC(=O)N[C@@H](Cc1ccccc1)C(=O)N[C@H]1CSSC[C@@H](C(=O)N2CCC[C@H]2C(N)=O)NC(=O)[C@H](CC(=O)O)NC1=O [SEQ ID NO:29, AcFCDCP-NH2] (Ac-FCDCP-NH2; disulfide 2-4)
Relative Potency (VLA-4 [3]; [5]): 1

CC(C)C[C@H](N)C(=O)N[C@@H](CC(=O)O)C(=O)N[C@@H](Cc1ccccc1)C(N)=O [LDF-NH2] (H-Leu-Asp-Phe-NH2)
Relative Potency (VLA-4 [3]; [5]): 0

CC(C)C[C@@H]1NC(=O)[C@@H](N)CSSC[C@@H](C(N)=O)NC(=O)[C@H](Cc2ccccc2)NC(=O)[C@H](CC(=O)O)NC1=O [SEQ ID NO:28, CLDFC -NH2] (H-CLDFC-NH2; disulfide 1-5)
Relative Potency (VLA-4 [3]; [5]): 1

CC(C)C[C@@H]1NC(=O)[C@H](Cc2ccccc2)NC(=O)[C@@H](N)CSSC[C@@H](C(N)=O)NC(=O)[C@H]([C@@H](C)O)NC(=O)[C@H](CO)NC(=O)[C@@H]2CCCN2C(=O)[C@H](Cc2ccccc2)NC(=O)[C@H](CC(=O)O)NC1=O [SEQ ID NO:15, CFLDFPSTC-NH2] (H-CFLDFPSTC-NH2; disulfide 1-9)
Relative Potency (VLA-4 [3]; [5]): 81

CC(=O)N[C@@H](Cc1ccccc1)C(=O)N[C@H]1CSSC[C@@H](C(N)=O)NC(=O)[C@H](Cc2ccccc2)NC(=O)[C@H](CC(=O)O)NC1=O [SEQ ID NO:17, AcFCDFC-NH2] (Ac-FCDFC-NH2; disulfide 2-5)
Relative Potency (VLA-4 [3]; [5]): 52

CC(C)C[C@@H]1NC(=O)[C@H](Cc2ccccc2)NC(=O)[C@@H](N)CSSC[C@@H](C(N)=O)NC(=O)[C@@H]2CCCN2C(=O)[C@H](Cc2ccccc2)NC(=O)[C@H](CC(=O)O)NC1=O [SEQ ID NO:10, CFLDFPC-N2] (H-CFLDFPC-NH2; disulfide 1-7)
inhibition of binding to CS-1 (in words) (VLA-4 [3]): excellent inhibitors
pIC50 (VLA-4 [3]; Jurkat cells, solid phase-bound CS-1, read-out: absolute value of IC50): ~6.22
Relative Potency (VLA-4 [3]; [5]): 253
Potency in inhibiting Jurkat cell binding to CS-1 relative to standard 10-mer of SEQ ID NO:6 (VLA-4 [3]): about 253

CC(C)C[C@@H]1NC(=O)[C@H](Cc2ccccc2)NC(=O)[C@H](CCC(=O)O)NC(=O)[C@@H]2CCCN2C(=O)[C@@H](N)CSSC[C@@H](C(N)=O)NC(=O)[C@@H]2CCCN2C(=O)[C@H](Cc2ccccc2)NC(=O)[C@H](CC(=O)O)NC1=O [drawing 23] (H-CPEFLDFPC-NH2; disulfide 1-9)
Relative Potency (VLA-4 [3]; [6]): 31.3

ILDFP-NH2 [SEQ ID NO:27, ILDFP-NH2]
Relative Potency (VLA-4 [3]; [5]): 2

CC(C)C[C@H](N)C(=O)N[C@@H](CC(=O)O)C(=O)N[C@H](C(N)=O)C(C)C [LDV-NH2, reference compound] (H-Leu-Asp-Val-NH2)
Relative Potency (VLA-4 [3]; [5]): 0
Potency in inhibiting Jurkat cell binding to CS-1 relative to standard 10-mer of SEQ ID NO:6 (VLA-4 [3]): zero

CC(C)C[C@@H]1NC(=O)[C@H](Cc2ccccc2)NC(=O)[C@H](CCC(=O)O)NC(=O)[C@@H]2CCCN2C(=O)CNC(=O)[C@@H](N)CSSC[C@@H](C(N)=O)NC(=O)[C@@H]2CCCN2C(=O)[C@H](Cc2ccccc2)NC(=O)[C@H](CC(=O)O)NC1=O (H-CGPEFLDFPC-NH2; disulfide 1-10)
Relative Potency (VLA-4 [3]; [6]): 6.26

SFDFS-NH2 [SEQ ID NO:31, SFDFS-NH2]
Relative Potency (VLA-4 [3]; [5]): < 1

CC(=O)N[C@H]1CSSC[C@@H](C(=O)N2CCC[C@@H]2C(N)=O)NC(=O)[C@H](CC(=O)O)NC(=O)[C@H](CC(C)C)NC1=O (Ac-CLDC[dP]-NH2; disulfide 1-4)
Relative Potency (VLA-4 [3]; [6]): 0
